Experimental data from PubChem BioAssay AID1919002 (Molecular Pharmacology Branch, DTP, NCI, 2023).
pIC50: −log10 of the molar value. “And” between values parts separate entries of the source, which are not always exact repeats. Identical values can stand only once.

System: 743489-274-T-PDC complex spheroid growth
Experiment: Anticancer human tumor 743489-274-T-PDC patient-derived renal cell carcinoma cell line growth inhibition [AhR]
Settings: for viability, T/C: stronger effect = lower value
Procedure, shortened: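 Spheroids combined tumor cells with HUVEC endothelial cells and human MSCs as stroma. AhR antagonists were paired with standard or investigational drugs, each dosed in half-log steps down from near clinical Cmax, or from 10 microM where Cmax was unknown.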

[1] = curve of first compound, second compound 0.1 µM
[2] = curve of first compound, second compound 0.316 µM
[3] = curve of first compound, second compound 1 µM
[4] = curve of first compound, second compound 3.16 µM
[5] = curve of first compound, second compound 10 µM
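Further: spheroids exposed to agents for 7 days before readout.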
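Wherever viability, T/C is given: 100% = DMSO vehicle control wells.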

SMILES: COc1cc(C2c3cc4c(cc3C(OC3OC5COC(C)OC5C(O)C3O)C3COC(=O)C23)OCO4)cc(OC)c1O (configuration not stated) + Cc1ccccc1N=Nc1ccc(NC(=O)c2ccnn2C)c(C)c1
- pIC50 [1]: < 5.00
- pIC50 [2]: < 5.00
- pIC50 [3]: < 5.00
- pIC50 [4]: < 5.00
- pIC50 [5]: < 5.00
- viability, T/C (second compound 0.1 µM, first compound 0.0316 µM): 98.7%
- viability, T/C (second compound 0.1 µM, first compound 0.1 µM): 87%
- viability, T/C (second compound 0.1 µM, first compound 0.316 µM): 97.2%
- viability, T/C (second compound 0.1 µM, first compound 1 µM): 94.4%
- viability, T/C (second compound 0.1 µM, first compound 3.16 µM): 98.3%
- viability, T/C (second compound 0.1 µM, first compound 10 µM): 79.9%
- viability, T/C (second compound 0.316 µM, first compound 0.0316 µM): 91.2%
- viability, T/C (second compound 0.316 µM, first compound 0.1 µM): 93.6%
- viability, T/C (second compound 0.316 µM, first compound 0.316 µM): 91.2%
- viability, T/C (second compound 0.316 µM, first compound 1 µM): 88.9%
- viability, T/C (second compound 0.316 µM, first compound 3.16 µM): 77.9%
- viability, T/C (second compound 0.316 µM, first compound 10 µM): 80.7%
- viability, T/C (second compound 1 µM, first compound 0.0316 µM): 86.7%
- viability, T/C (second compound 1 µM, first compound 0.1 µM): 93.7%
- viability, T/C (second compound 1 µM, first compound 0.316 µM): 90.7%
- viability, T/C (second compound 1 µM, first compound 1 µM): 88.9%
- viability, T/C (second compound 1 µM, first compound 3.16 µM): 90.4%
- viability, T/C (second compound 1 µM, first compound 10 µM): 74.8%
- viability, T/C (second compound 3.16 µM, first compound 0.0316 µM): 83.3%
- viability, T/C (second compound 3.16 µM, first compound 0.1 µM): 90.2%
- viability, T/C (second compound 3.16 µM, first compound 0.316 µM): 86.9%
- viability, T/C (second compound 3.16 µM, first compound 1 µM): 78.8%
- viability, T/C (second compound 3.16 µM, first compound 3.16 µM): 78.6%
- viability, T/C (second compound 3.16 µM, first compound 10 µM): 75.8%
- viability, T/C (second compound 10 µM, first compound 0.0316 µM): 78.4%
- viability, T/C (second compound 10 µM, first compound 0.1 µM): 81.8%
- viability, T/C (second compound 10 µM, first compound 0.316 µM): 95.1%
- viability, T/C (second compound 10 µM, first compound 1 µM): 72%
- viability, T/C (second compound 10 µM, first compound 3.16 µM): 69.4%
- viability, T/C (second compound 10 µM, first compound 10 µM): 70.7%

SMILES: CCc1c2c(nc3ccc(O)cc13)-c1cc3c(c(=O)n1C2)COC(=O)[C@]3(O)CC + Cc1ccccc1N=Nc1ccc(NC(=O)c2ccnn2C)c(C)c1
- pIC50 [1]: < 6.52
- pIC50 [2]: < 6.52
- pIC50 [3]: 6.62
- pIC50 [4]: < 6.52
- pIC50 [5]: 7.06
- viability, T/C (second compound 0.1 µM, first compound 0.000949 µM): 79.7%
- viability, T/C (second compound 0.1 µM, first compound 0.003 µM): 94.1%
- viability, T/C (second compound 0.1 µM, first compound 0.00949 µM): 89.5%
- viability, T/C (second compound 0.1 µM, first compound 0.03 µM): 76.1%
- viability, T/C (second compound 0.1 µM, first compound 0.0949 µM): 59.2%
- viability, T/C (second compound 0.1 µM, first compound 0.3 µM): 55.1%
- viability, T/C (second compound 0.316 µM, first compound 0.000949 µM): 83.4%
- viability, T/C (second compound 0.316 µM, first compound 0.003 µM): 89.2%
- viability, T/C (second compound 0.316 µM, first compound 0.00949 µM): 94.8%
- viability, T/C (second compound 0.316 µM, first compound 0.03 µM): 71.2%
- viability, T/C (second compound 0.316 µM, first compound 0.0949 µM): 54.9%
- viability, T/C (second compound 0.316 µM, first compound 0.3 µM): 50%
- viability, T/C (second compound 1 µM, first compound 0.000949 µM): 90.2%
- viability, T/C (second compound 1 µM, first compound 0.003 µM): 93.2%
- viability, T/C (second compound 1 µM, first compound 0.00949 µM): 79.6%
- viability, T/C (second compound 1 µM, first compound 0.03 µM): 72.1%
- viability, T/C (second compound 1 µM, first compound 0.0949 µM): 60%
- viability, T/C (second compound 1 µM, first compound 0.3 µM): 47.3%
- viability, T/C (second compound 3.16 µM, first compound 0.000949 µM): 85.1%
- viability, T/C (second compound 3.16 µM, first compound 0.003 µM): 88.9%
- viability, T/C (second compound 3.16 µM, first compound 0.00949 µM): 80.7%
- viability, T/C (second compound 3.16 µM, first compound 0.03 µM): 62.8%
- viability, T/C (second compound 3.16 µM, first compound 0.0949 µM): 57.8%
- viability, T/C (second compound 3.16 µM, first compound 0.3 µM): 50.2%
- viability, T/C (second compound 10 µM, first compound 0.000949 µM): 85.4%
- viability, T/C (second compound 10 µM, first compound 0.003 µM): 84.7%
- viability, T/C (second compound 10 µM, first compound 0.00949 µM): 76.8%
- viability, T/C (second compound 10 µM, first compound 0.03 µM): 60%
- viability, T/C (second compound 10 µM, first compound 0.0949 µM): 50.2%
- viability, T/C (second compound 10 µM, first compound 0.3 µM): 44.7%

SMILES: CCc1c2c(nc3ccc(O)cc13)-c1cc3c(c(=O)n1C2)COC(=O)[C@]3(O)CC
- viability, T/C (compound 0.000949 µM): 105% and 85% and 104%
- viability, T/C (compound 0.003 µM): 105% and 102% and 103%
- viability, T/C (compound 0.00949 µM): 102% and 85.4% and 107%
- viability, T/C (compound 0.03 µM): 83% and 70.5% and 95.8%
- viability, T/C (compound 0.0949 µM): 77.1% and 65.4% and 83.9%
- viability, T/C (compound 0.3 µM): 68.5% and 50.5% and 59.9%
- pIC50 (curve of compound): < 6.52
